Data from patent US8987473B2, “Ring-fused compound” (Sato Pharmaceutical Co., Ltd., priority 2011, dated 2015).

Molecular target: human URAT1 (Homo sapiens (Human), UniProt Q96S37)
Assay: Test for uric acid transport inhibition using human URAT1 expression cell
Type: cell-based
Conditions: human URAT1 stable expression CHO cell; 14C-labeled uric acid 38 μM final concentration; incorporation at room temperature for 5 minutes; 100% window defined with benzbromarone 100 μM; read-out: URAT1 Inhibitory Activity (IC50)
Method: In this Example, it was evaluated whether the Example compound has the URAT1 inhibitory activity.
Human URAT1 full-length cDNA was introduced to an expression vector pcDNA5/FRT/V5-His TOPO (registered trademark) (Invitrogen Corporation). The obtained expression plasmid was introduced to Chinese hamster ovary cell (hereinafter referred to as the CHO cell) by the liposome method using Lipofectamine LTX (Invitrogen), and cultured in a selection medium including hygromycin, whereby to prepare human URAT1 stable expression cell.
The human URAT1 expression CHO cell was cultured using D-MEM/F-12 (1:1) mixed medium including 10% bovine fetal serum and hygromycin at 37° C. in the presence of 5% CO2. The cells were seeded onto a 96 well plate (Corning Incorporated) in 0.8×10^5 cells/well, and after 24 hours, the test for uric acid transport inhibition below was performed.
The medium was removed by aspiration, and then the cells were washed once with an assay buffer including 125 mM of sodium gluconate, 4.8 mM of potassium gluconate, 1.2 mM of potassium dihydrogen phosphate, 1.2 mM of magnesium sulfate, 1.3 mM of calcium gluconate and 5.6 mM of glucose. 50 μL assay buffer including the test compound in various concentrations was added, and further 50 μL assay buffer including a radioactive ligand (uric acid labeled with ^14C; 38 μM final concentration) was added, and incorporation reaction was performed at room temperature for 5 minutes. Immediately after completion of the reaction, the reaction mixture was washed twice with 100 μL ice-cold assay buffer, and 100 μL of 0.1 N sodium hydroxide was added. The reaction mixture was stirred to lyse the cells, and 4 mL Hionic-Fluor (Packard BioScience CO) was added, and then the radioactivity was measured with a liquid scintillation counter (Beckman Coulter, Inc. and Packard BioScience CO).
The radioactivity when each concentration of the test compound was added (uric acid incorporation activity, %) was calculated in which the difference of the radioactivity when the test compound was not added (DMSO added), and the radioactivity when a positive control compound, benzbromarone (known URAT1 inhibitor) was added in 100 μM, was taken as 100%, and the concentration of the test compound when the uric acid incorporation activity was inhibited to 50% (IC50) was obtained.

Chain of human URAT1 (Q96S37 whole entry): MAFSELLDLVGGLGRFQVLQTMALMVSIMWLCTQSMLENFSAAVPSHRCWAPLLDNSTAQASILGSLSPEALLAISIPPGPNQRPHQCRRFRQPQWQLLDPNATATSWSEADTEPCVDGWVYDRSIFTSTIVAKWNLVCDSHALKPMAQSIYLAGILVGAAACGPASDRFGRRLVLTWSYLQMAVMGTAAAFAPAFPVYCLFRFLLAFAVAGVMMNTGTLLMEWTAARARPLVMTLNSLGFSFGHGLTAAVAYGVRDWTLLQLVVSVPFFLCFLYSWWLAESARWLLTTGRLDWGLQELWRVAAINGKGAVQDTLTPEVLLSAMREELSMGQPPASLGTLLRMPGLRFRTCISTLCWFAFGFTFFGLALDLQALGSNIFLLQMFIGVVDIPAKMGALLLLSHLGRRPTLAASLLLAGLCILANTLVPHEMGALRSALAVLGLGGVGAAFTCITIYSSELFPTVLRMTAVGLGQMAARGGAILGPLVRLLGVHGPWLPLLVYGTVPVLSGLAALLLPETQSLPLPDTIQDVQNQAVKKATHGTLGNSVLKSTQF

Row | Compound | IC50
1 | Cc1cccc(C)c1Cn1cc(C)c2ccc(C(=O)O)cc21 [Example 61, 1-(2,6-dimethylbenzyl)-3-methyl-1H-indole-6-carboxylic acid] | 0.046 µM
2 | Cc1cccc(C)c1Cn1nc(C)c2ccc(CC(=O)O)cc21 [Example 66, 2-[1-(2,6-dimethylbenzyl)-3-methyl-1H-indazole-6-yl]acetic acid] | 0.067 µM
3 | Cc1cccc(C)c1Cn1cc(Cl)c2ccc(CC(=O)O)cc21 [Example 68, 2-[3-chloro-1-(2,6-dimethylbenzyl)-1H-indole-6-yl]acetic acid] | 0.03 µM
4 | Cc1cccc(C)c1CN1CC(C)c2ccc(CC(=O)O)cc21 (centres unmarked) [Example 78, (3-RS)-2-[1-(2,6-dimethylbenzyl)-2,3-dihydro-3-methyl-1H-indole-6-yl]acetic acid] | 0.024 µM
5 | Cc1cccc(C)c1CN1CC(C)(C)c2ccc(CC(=O)O)cc21 [Example 80, 2-[1-(2,6-dimethylbenzyl)-2,3-dihydro-3,3-dimethyl-1H-indole-6-yl]acetic acid] | 0.018 µM
6 | Cc1cn(Cc2c(Cl)cccc2Cl)c2cc(CC(=O)O)ccc12 [Example 82, 2-[1-(2,6-dichlorobenzyl)-3-methyl-1H-indole-6-yl]acetic acid] | 0.015 µM
7 | Cc1ccc(C)c(Cn2cc(C)c3ccc(CC(=O)O)cc32)c1 [Example 85, 2-[1-(2,5-dimethylbenzyl)-3-methyl-1H-indole-6-yl]acetic acid] | 0.063 µM
8 | Cc1cn(Cc2c(F)cccc2Cl)c2cc(CC(=O)O)ccc12 [Example 86, 2-[1-(2-chloro-6-fluorobenzyl)-3-methyl-1H-indole-6-yl]acetic acid] | 0.028 µM
9 | Cc1cn(Cc2ccccc2Cl)c2cc(CC(=O)O)ccc12 [Example 87, 2-[1-(2-chlorobenzyl)-3-methyl-1H-indole-6-yl]acetic acid] | 0.088 µM
10 | Cc1cn(Cc2c(Cl)cccc2Cl)c2cc(CCC(=O)O)ccc12 [Example 89, 3-[1-(2,6-dichlorobenzyl)-3-methyl-1H-indole-6-yl]propionic acid] | 0.023 µM
11 | CCc1cn(Cc2c(C)cccc2C)c2cc(C(=O)O)ccc12 [Example 91, 1-(2,6-dimethylbenzyl)-3-ethyl-1H-indole-6-carboxylic acid] | 0.043 µM
12 | Cc1cccc(C)c1Cn1cc(C(C)C)c2ccc(C(=O)O)cc21 [Example 92, 1-(2,6-dimethylbenzyl)-3-isopropyl-1H-indole-6-carboxylic acid] | 0.071 µM
13 | Cc1nn(Cc2cccc(Cl)c2Cl)c2cc(CC(=O)O)ccc12 [Example 99, 2-[1-(2,3-dichlorobenzyl)-3-methyl-1H-indazole-6-yl]acetic acid] | 0.041 µM
14 | Cc1nn(Cc2c(F)cccc2Cl)c2cc(CC(=O)O)ccc12 [Example 104, 2-[1-(2-chloro-6-fluorobenzyl)-3-methyl-1H-indazole-6-yl]acetic acid] | 0.101 µM

Further lines, results first:

Row | IC50 | Compound
15 | 0.022 µM | Cc1cccc(C)c1Cn1cc(C)c2ccc(CC(=O)O)cc21 [Example 64, 2-[1-(2,6-dimethylbenzyl)-3-methyl-1H-indole-6-yl]acetic acid]
16 | 0.077 µM | Cc1cccc(C)c1CN1CCc2ccc(CC(=O)O)cc21 [Example 75, 2-[1-(2,6-dimethylbenzyl)-2,3-dihydro-1H-indole-6-yl]acetic acid]
17 | 0.053 µM | Cc1cn(Cc2cccc(Cl)c2Cl)c2cc(CC(=O)O)ccc12 [Example 84, 2-[1-(2,3-dichlorobenzyl)-3-methyl-1H-indole-6-yl]acetic acid]
18 | 0.098 µM | Cc1cn(Cc2cc3c(cc2Cl)OCO3)c2cc(CC(=O)O)ccc12 [Example 88, 2-{1-[(6-chlorobenzo[d][1,3]dioxol-5-yl)methyl]-3-methyl-1H-indole-6-yl}acetic acid]
19 | 0.018 µM | Cc1nn(Cc2c(Cl)cccc2Cl)c2cc(CC(=O)O)ccc12 [Example 97, 2-[1-(2,6-dichlorobenzyl)-3-methyl-1H-indazole-6-yl]acetic acid]
20 | 0.052 µM | Cc1cccc(Cl)c1Cn1nc(C)c2ccc(CC(=O)O)cc21 [Example 102, 2-[1-(2-chloro-6-methylbenzyl)-3-methyl-1H-indazole-6-yl]acetic acid]
